These results are taken from patent US20250090699A1, “FAP TARGETING CYCLIC PEPTIDES AND CONJUGATES THEREOF” (Novartis AG, priority 2023, published 2025).

pIC50, pKd: −log10 of the molar value. Starred links: 1 amine or outer side, 2 acyl side, 3 side chain; linkers in the order of their positions; H or OH if unused. Positions of bridges follow the written chain, without caps; N, C: chain ends. Non-standard residues stand in square brackets, D forms with d. Residues, ends and D or L forms follow the SMILES beside them. Groups on a side chain read outwards from the residue. Chains are numbered I, II in the order given. *: point of attachment. X2 = O=C(O)CN1CCN(CC(=O)O)CCN(CC(=O)NC(CC(=O)NCCOCCOCCOCC(=O)[*:1])CC(=O)NCCOCCOCCOCC(=O)[*:2])CCN(CC(=O)O)CC1; DOTA(Lu) = O=C1CN2CCN3CCN(CC(=O)*)CCN(CC2)CC(=O)[O][Lu]([O]1)[O]C(=O)C3; DOTA = O=C(O)CN1CCN(CC(=O)O)CCN(CC(=O)*)CCN(CC(=O)O)CC1; Nicotinoyl(6-NMe3+) = C[N+](C)(C)c1ccc(C(=O)*)cn1; Phe(4-CH2NH2) = NCc1ccc(C[C@H](N)C(=O)O)cc1; Piperazinyl(4-CH2COOH) = O=C(O)CN1CCN(*)CC1; AEF = NCCOc1ccc(C[C@H](N)C(=O)O)cc1; NMeF = CN[C@@H](Cc1ccccc1)C(=O)O; Ahp(2) = CCCCC[C@H](N)C(=O)O; hSer = N[C@@H](CCO)C(=O)O; AEEA = NCCOCCOCC(=O)O; CO = O=C([*:1])[*:2]; Propyl = CCC*

Test [1] concerns the target T1, mouse FAP (Mus musculus, UniProt P97321).
T1 construct: biotinylated His, Avi tag, mouse FAP (26-761, FAP-M82Q5); His; Avi tag (biotinylated); purchased AcroBiosystems FAP-M82Q5
T1 sequence (P97321 26-761): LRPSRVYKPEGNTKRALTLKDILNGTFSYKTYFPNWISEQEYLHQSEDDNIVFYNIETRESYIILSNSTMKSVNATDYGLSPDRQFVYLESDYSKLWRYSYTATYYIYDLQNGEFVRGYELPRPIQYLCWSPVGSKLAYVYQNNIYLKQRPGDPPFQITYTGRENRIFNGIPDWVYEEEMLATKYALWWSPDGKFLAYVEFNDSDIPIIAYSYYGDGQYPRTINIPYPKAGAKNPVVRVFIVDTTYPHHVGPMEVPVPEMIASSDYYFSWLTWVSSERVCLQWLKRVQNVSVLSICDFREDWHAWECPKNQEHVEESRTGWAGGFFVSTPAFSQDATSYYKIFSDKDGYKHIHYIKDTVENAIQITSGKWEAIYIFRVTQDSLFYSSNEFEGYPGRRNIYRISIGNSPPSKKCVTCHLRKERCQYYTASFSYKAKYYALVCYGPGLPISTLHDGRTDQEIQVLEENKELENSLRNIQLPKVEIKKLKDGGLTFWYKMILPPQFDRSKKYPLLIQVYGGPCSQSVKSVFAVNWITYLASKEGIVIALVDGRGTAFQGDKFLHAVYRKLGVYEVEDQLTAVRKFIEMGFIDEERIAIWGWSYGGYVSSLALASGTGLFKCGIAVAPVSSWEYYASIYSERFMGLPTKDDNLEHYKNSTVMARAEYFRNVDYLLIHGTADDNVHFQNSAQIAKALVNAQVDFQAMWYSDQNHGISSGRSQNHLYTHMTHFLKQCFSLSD
The test can be described thus: Surface plasmon resonance (SPR) for peptide affinity, mouse FAP. It counts as binding. The essentials:
(§1)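 Biotinylated His/Avi-tagged FAP ectodomains (human 26-760, mouse 26-761) captured or immobilized on Biacore sensor chips; peptides run at 25 °C in HBS-EP+ pH 7.6 with 2% DMSO, single-cycle kinetics, 8 concentrations. KD from 1:1 binding-model fit of sensorgrams.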
Background: Surface plasmon resonance follows binding to a sensor surface in real time, without labels.

The target in test [2] is T2, human FAP (Homo sapiens, UniProt Q12884).
T2 construct: the biotinylated His, Avi tag, human FAP (26-760, FAP-H82Q6); His; Avi tag (biotinylated); purchased AcroBiosystems FAP-H82Q6
T2 sequence (Q12884 26-760): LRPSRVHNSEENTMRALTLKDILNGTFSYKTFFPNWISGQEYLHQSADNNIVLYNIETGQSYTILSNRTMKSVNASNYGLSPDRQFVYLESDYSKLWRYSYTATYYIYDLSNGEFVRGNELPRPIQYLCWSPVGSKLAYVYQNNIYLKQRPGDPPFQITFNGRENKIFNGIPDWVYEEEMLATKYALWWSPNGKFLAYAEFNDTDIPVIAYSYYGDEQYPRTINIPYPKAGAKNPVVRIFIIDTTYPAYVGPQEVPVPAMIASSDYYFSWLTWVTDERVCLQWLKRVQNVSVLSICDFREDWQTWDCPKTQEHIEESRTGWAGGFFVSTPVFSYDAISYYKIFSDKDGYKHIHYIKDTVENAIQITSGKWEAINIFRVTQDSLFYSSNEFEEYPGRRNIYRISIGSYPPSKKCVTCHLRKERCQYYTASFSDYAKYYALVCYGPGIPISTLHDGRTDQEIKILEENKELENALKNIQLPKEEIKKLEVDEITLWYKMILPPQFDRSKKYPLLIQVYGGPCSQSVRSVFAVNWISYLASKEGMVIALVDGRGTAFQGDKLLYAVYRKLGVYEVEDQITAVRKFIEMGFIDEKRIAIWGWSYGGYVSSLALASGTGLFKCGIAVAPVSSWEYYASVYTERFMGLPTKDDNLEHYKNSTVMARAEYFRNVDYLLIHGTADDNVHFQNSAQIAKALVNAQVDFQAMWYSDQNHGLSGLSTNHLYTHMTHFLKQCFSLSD
The test can be described thus: Enzymatic FAP competition assay (Z-Gly-Pro-AMC fluorescence), human FAP. The format is biochemical. The conditions noted are these: read-out: h. FAP, Enz., IC50. The essentials: (§2)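 Biotinylated His/Avi-tagged FAP ectodomain (human 26-760, mouse 26-761) at 0.01 nM, preincubated 24 h with peptides (14 concentrations, up to 1 μM) in pH 7.5 phosphate, 150 mM NaCl, 0.05% Tween20, 1% DMSO. Then 50 μM Z-Gly-Pro-AMC, 4 h at 22-24° C; AMC fluorescence (380/460 nm) gave IC50 from duplicate points.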

Test [3] has as its target T2, human FAP. The test can be described thus: Surface plasmon resonance (SPR) for peptide affinity, human FAP. The format is binding. The conditions noted are these: read-out: h. FAP, SPR, KD. The essentials:
as §1

In test [4] the target is T1, mouse FAP. The test is described as follows: Enzymatic FAP competition assay (Z-Gly-Pro-AMC fluorescence), mouse FAP. The format is biochemical. The following applies: read-out: m. FAP, Enz., IC50. The essentials: as §2

As usually defined, the pKd is the Kd on a negative log10 scale, so that one unit is a factor of ten. In general, pIC50 refers to −log10 of the IC50, conventionally taken in molar units. Turning to `CCCOCC[C@@H]1NC(=O)[C@H](Cc2ccc(CNC(=O)COCCOCCNC(=O)CN3CCN(CC(=O)O)CCN(CC(=O)O)CCN(CC(=O)O)CC3)cc2)NC(=O)[C@H](Cc2ccccc2)N(C)C(=O)CNC(=O)CNC(=O)[C@H]2CCCN2C(=O)[C@H](CC(=O)O)NC(=O)[C@H](CCCCNC(=O)N2CCN(CC(=O)O)CC2)NC(=O)CNC(=O)[C@H](Cc2c[nH]c3ccccc23)NC1=O` [Example B2, Gly-Gly-NMePhe-F(4ampEG2NHDOTA)-hS(Pr)-Trp-Gly-K(COpipzaa)-Asp-D-Pro] (cyclo(D[dP]GG[NMeF][Phe(4-CH2NH2)]([AEEA-DOTA])[hSer](Propyl)WGK([CO-Piperazinyl(4-CH2COOH)]))), the pKd is more than 10.66 on mouse FAP [1] and more than 10.89 at human FAP [3]. The results for the pIC50 on human FAP [2] and at mouse FAP [4] were 11.15 and 10.74, respectively.
For `CCCOCC[C@@H]1NC(=O)[C@H](Cc2ccc(CNC(=O)COCCOCCNC(=O)c3ccc([N+](C)(C)C)nc3)cc2)NC(=O)[C@H](Cc2ccccc2)N(C)C(=O)CNC(=O)CNC(=O)[C@H]2CCCN2C(=O)[C@H](CC(=O)O)NC(=O)[C@H](CCCCNC(=O)N2CCN(CC(=O)O)CC2)NC(=O)CNC(=O)[C@H](Cc2c[nH]c3ccccc23)NC1=O` [Example C58] (cyclo(D[dP]GG[NMeF][Phe(4-CH2NH2)]([AEEA-Nicotinoyl(6-NMe3+)])[hSer](Propyl)WGK([CO-Piperazinyl(4-CH2COOH)]))), in that order: more than 10.77, more than 11.15, 11.22 and 10.77.
Take “Lys(DOTA-Lu)-Gly-NMePhe-Tyr-Ahp-Trp-Gly-Tyr-Asp-D-Pro (cyclo(K(DOTA(Lu))G[NMeF]Y[Ahp(2)]WGYD[dP]); also: Lu complex) [Example C22]”: the results for the pKd with mouse FAP [1] and with human FAP [3] were 9.19 and 9.39, respectively. Moreover, the pIC50 with human FAP [2] is 9.37; with mouse FAP [4] it was 8.96.
For `CCCCC[C@@H]1NC(=O)[C@H](Cc2ccc(OCCNC(=O)COCCOCCOCCNC(=O)CC(CC(=O)NCCOCCOCCOCC(=O)NCCOc3ccc(C[C@@H]4NC(=O)[C@H](Cc5ccccc5)N(C)C(=O)CNC(=O)[C@H](CCCCNC(=O)N5CCN(CC(=O)O)CC5)NC(=O)[C@H]5CCCN5C(=O)[C@H](CC(=O)O)NC(=O)[C@H](Cc5ccc(O)cc5)NC(=O)CNC(=O)[C@H](Cc5c[nH]c6ccccc56)NC(=O)[C@H](CCCCC)NC4=O)cc3)NC(=O)CN3CCN(CC(=O)O)CCN(CC(=O)O)CCN(CC(=O)O)CC3)cc2)NC(=O)[C@H](Cc2ccccc2)N(C)C(=O)CNC(=O)[C@H](CCCCNC(=O)N2CCN(CC(=O)O)CC2)NC(=O)[C@H]2CCCN2C(=O)[C@H](CC(=O)O)NC(=O)[C@H](Cc2ccc(O)cc2)NC(=O)CNC(=O)[C@H](Cc2c[nH]c3ccccc23)NC1=O` [Example M4] (I: cyclo(K([CO-Piperazinyl(4-CH2COOH)])G[NMeF][AEF][Ahp(2)]WGYD[dP]) / II: cyclo(K([CO-Piperazinyl(4-CH2COOH)])G[NMeF][AEF][Ahp(2)]WGYD[dP]); linker I:4-II:4 via X2), in that order: 9.29, 9.49, 9.42 and 8.96.
